Drawing on patent publication US20250163032A1, “NOVEL MOLECULES AS INHIBITORS OF DNA DAMAGE REPAIR PATHWAY” (VRise Therapeutics, Inc., priority 2023, published 2025), this text covers inhibition for 21 molecules.

Some results are limits rather than exact numbers.

Sequence of USP1/UAF1 (O94782 whole entry): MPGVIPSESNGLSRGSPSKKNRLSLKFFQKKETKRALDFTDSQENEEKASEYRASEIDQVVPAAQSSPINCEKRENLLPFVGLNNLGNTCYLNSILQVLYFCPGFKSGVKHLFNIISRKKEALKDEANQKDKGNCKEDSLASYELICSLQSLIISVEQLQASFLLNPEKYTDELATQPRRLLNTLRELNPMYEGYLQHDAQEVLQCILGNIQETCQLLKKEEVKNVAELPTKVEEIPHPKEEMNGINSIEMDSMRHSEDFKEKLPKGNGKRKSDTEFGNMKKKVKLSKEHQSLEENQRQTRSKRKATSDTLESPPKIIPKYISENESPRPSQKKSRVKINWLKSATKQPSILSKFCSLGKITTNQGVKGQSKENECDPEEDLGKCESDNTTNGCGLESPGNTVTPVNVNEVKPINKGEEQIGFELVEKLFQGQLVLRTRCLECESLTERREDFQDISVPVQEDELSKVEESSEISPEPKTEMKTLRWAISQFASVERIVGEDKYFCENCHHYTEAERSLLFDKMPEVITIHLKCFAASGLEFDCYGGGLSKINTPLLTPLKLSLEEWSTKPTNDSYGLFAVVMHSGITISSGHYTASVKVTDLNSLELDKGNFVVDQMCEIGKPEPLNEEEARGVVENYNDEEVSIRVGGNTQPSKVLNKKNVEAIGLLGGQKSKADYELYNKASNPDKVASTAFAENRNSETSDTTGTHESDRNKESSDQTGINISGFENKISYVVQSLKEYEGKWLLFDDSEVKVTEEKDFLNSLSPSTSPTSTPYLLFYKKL
Sequence of USP1/UAF1 (Q8TAF3 whole entry partner): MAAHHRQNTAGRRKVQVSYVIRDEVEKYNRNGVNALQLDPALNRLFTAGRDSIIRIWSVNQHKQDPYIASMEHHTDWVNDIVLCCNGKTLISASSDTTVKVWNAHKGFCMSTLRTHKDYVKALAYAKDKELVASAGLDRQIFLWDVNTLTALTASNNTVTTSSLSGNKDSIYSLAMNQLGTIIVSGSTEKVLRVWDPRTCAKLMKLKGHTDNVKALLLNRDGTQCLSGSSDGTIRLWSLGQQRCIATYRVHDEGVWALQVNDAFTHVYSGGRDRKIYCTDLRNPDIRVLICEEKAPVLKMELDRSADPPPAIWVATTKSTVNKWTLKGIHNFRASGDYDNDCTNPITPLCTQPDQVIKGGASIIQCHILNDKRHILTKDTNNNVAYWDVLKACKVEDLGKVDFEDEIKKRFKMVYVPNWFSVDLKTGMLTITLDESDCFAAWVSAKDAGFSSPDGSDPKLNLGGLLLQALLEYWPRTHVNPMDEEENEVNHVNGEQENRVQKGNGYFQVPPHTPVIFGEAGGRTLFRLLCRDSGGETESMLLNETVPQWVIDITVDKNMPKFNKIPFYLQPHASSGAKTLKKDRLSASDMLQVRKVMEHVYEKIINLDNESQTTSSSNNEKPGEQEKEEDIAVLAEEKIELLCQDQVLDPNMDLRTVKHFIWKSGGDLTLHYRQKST

In the experiment the target is USP1/UAF1 (Homo sapiens, UniProt O94782). Nature of the experiment: USP1/UAF 1 assay (ubiquitin-rhodamine110 fluorometric deubiquitinase assay). In kind it is biochemical. The conditions noted are these: read-out: Biochemical assay % inhibition @1 μM. The method, then: Test-1: USP1/UAF 1 Assay:
Deubiquitinase activity of USP1/UAF1 was monitored in a fluorometric assay using ubiquitin-rhodamine110 as substrate. Briefly, enzymatic reactions were conducted in an assay buffer composed of 50 mM HEPES, pH 7.8, 0.5 mM EDTA, 100 mM NaCl, 1 mM TCEP, 0.1 mg/mL BSA, and 0.01% Tween-20 that contained 1 nM USP1/UAF1. Compounds were tested at desired concentrations. The plates were incubated for 15 min to attain equilibrium, and then the enzymatic reaction was initiated by dispensing 150 nM Ub-Rho solution. Fluorescence measurement was performed in a high throughput CCD imager, where kinetic measurements of rhodamine fluorescence were acquired using a 480 nm excitation/540 nm emission filter set. The change in fluorescence intensity over a 5-minute reaction period (typically associated with less than 10% substrate conversion) was normalized against no-inhibitor and no-enzyme controls and the resulting percent inhibition data were fitted to a sigmoidal dose response using a four-parameter Hill equation. Data was be analysed and percent inhibition and/or IC50 for each test compound is calculated accordingly.
For the molecule `COc1ccc(-c2nc(NCc3ccc(-c4nc(C(F)(F)F)cn4C)cc3)c3[nH]cnc3n2)cc1OC` [Example 51, 2-(3,4-dimethoxyphenyl)-N-(4-(1-methyl-4-(trifluoromethyl)-1H-imidazol-2-yl)benzyl)-7H-purin-6-amine], the inhibition at 1 µM lay within 50 to 75%.
With `COc1cc(-c2nc(NCc3ccc(-c4nc(C(F)(F)F)cn4C)cc3)c3[nH]cnc3n2)ccc1F` [Example 52, 2-(4-fluoro-3-methoxyphenyl)-N-(4-(1-methyl-4-(trifluoromethyl)-1H-imidazol-2-yl)benzyl)-7H-purin-6-amine], the inhibition at 1 µM lay in the range of 50 to 75%.
Turning to `COc1ccc(-c2nc(NCc3ccc(-c4nc(C(F)(F)F)cn4C)cc3)c3[nH]cnc3n2)c(OC)c1` [Example 53, 2-(2,4-dimethoxyphenyl)-N-(4-(1-methyl-4-(trifluoromethyl)-1H-imidazol-2-yl)benzyl)-7H-purin-6-amine], the inhibition at 1 µM fell in the range of 50 to 75%.
For `Cn1cc(C(F)(F)F)nc1-c1ccc(CNc2nc(-c3cccc(F)c3C(F)(F)F)nc3nc[nH]c23)cc1` [Example 54, 2-(3-fluoro-2-(trifluoromethyl)phenyl)-N-(4-(1-methyl-4-(trifluoromethyl)-1H-imidazol-2-yl)benzyl)-7H-purin-6-amine], the inhibition at 1 µM is 50 to 75%.
Consider `Cn1cc(C(F)(F)F)nc1-c1ccc(CNc2nc(-c3cccc(C(N)=O)c3)nc3nc[nH]c23)cc1` [Example 55, 3-(6-((4-(1-methyl-4-(trifluoromethyl)-1H-imidazol-2-yl)benzyl)amino)-7H-purin-2-yl)benzamide], for which the inhibition at 1 µM is 50 to 75%.
To `CSc1ccc(-c2nc(NCc3ccc(-c4nc(C(F)(F)F)cn4C)cc3)c3[nH]cnc3n2)cc1` [Example 56, N-(4-(1-methyl-4-(trifluoromethyl)-1H-imidazol-2-yl)benzyl)-2-(4-(methylthio)phenyl)-7H-purin-6-amine] belongs 50 to 75%; to `Cn1cc(C(F)(F)F)nc1-c1ccc(CNc2nc(-c3ccc(C(F)(F)F)cc3)nc3nc[nH]c23)cc1` [Example 57, N-(4-(1-methyl-4-(trifluoromethyl)-1H-imidazol-2-yl)benzyl)-2-(4-(trifluoromethyl)phenyl)-7H-purin-6-amine], 50 to 75%.
Take `Cn1cc(C(F)(F)F)nc1-c1ccc(CNc2nc(-c3cccc(C(F)(F)F)c3)nc3nc[nH]c23)cc1` [Example 58, N-(4-(1-methyl-4-(trifluoromethyl)-1H-imidazol-2-yl)benzyl)-2-(3-(trifluoromethyl)phenyl)-7H-purin-6-amine]: the inhibition at 1 µM lay in the range of 50 to 75%.
Turning to `CC(=O)Nc1cccc(-c2nc3c(c(NCc4ccc(-c5nc(C(F)(F)F)cn5C)cc4)n2)CCC3)c1` [Example 59, N-(3-(4-((4-(1-methyl-4-(trifluoromethyl)-1H-imidazol-2-yl)benzyl)amino)-6,7-dihydro-5H-cyclopenta[d]pyrimidin-2-yl)phenyl)acetamide], the inhibition at 1 µM lay within 50 to 75%.
For `Cn1cc(C(F)(F)F)nc1-c1ccc(CNc2nc(-c3ccc(F)c(C#N)c3)nc3c2CCC3)cc1` [Example 60, 2-fluoro-5-(4-((4-(1-methyl-4-(trifluoromethyl)-1H-imidazol-2-yl)benzyl)amino)-6,7-dihydro-5H-cyclopenta[d]pyrimidin-2-yl)benzonitrile], the inhibition at 1 µM is 50 to 75%.
For `Cn1cc(C(F)(F)F)nc1-c1ccc(CNc2nc(-c3cc(Cl)ccc3F)nc3c2CCC3)cc1` [Example 61, 2-(5-chloro-2-fluorophenyl)-N-(4-(1-methyl-4-(trifluoromethyl)-1H-imidazol-2-yl)benzyl)-6,7-dihydro-5H-cyclopenta[d]pyrimidin-4-amine], the inhibition at 1 µM lay within 50 to 75%.
With `CCOc1ccc(-c2nc3c(c(NCc4ccc(-c5nc(C(F)(F)F)cn5C)cc4)n2)CCC3)cn1` [Example 62, 2-(6-ethoxypyridin-3-yl)-N-(4-(1-methyl-4-(trifluoromethyl)-1H-imidazol-2-yl)benzyl)-6,7-dihydro-5H-cyclopenta[d]pyrimidin-4-amine], the inhibition at 1 µM lay within 50 to 75%.
For `Cn1cc(C(F)(F)F)nc1-c1ccc(CNc2nc(-c3ccc(C#N)cc3)nc3c2CCC3)cc1` [Example 63, 4-(4-((4-(1-methyl-4-(trifluoromethyl)-1H-imidazol-2-yl)benzyl)amino)-6,7-dihydro-5H-cyclopenta[d]pyrimidin-2-yl)benzonitrile], the inhibition at 1 µM is 50 to 75%.
Next, `Cn1cc(C(F)(F)F)nc1-c1ccc(CNc2nc(-c3ccc(-c4ccccc4)cc3)nc3c2CCC3)cc1` [Example 64, 2-([1,1′-biphenyl]-4-yl)-N-(4-(1-methyl-4-(trifluoromethyl)-1H-imidazol-2-yl)benzyl)-6,7-dihydro-5H-cyclopenta[d]pyrimidin-4-amine]: 25 to 50%.
`COc1ccc(-c2nc3c(c(NCc4ccc(-c5nc(C(F)(F)F)cn5C)cc4)n2)CCC3)c(OC)n1` [Example 65, 2-(2,6-dimethoxypyridin-3-yl)-N-(4-(1-methyl-4-(trifluoromethyl)-1H-imidazol-2-yl)benzyl)-6,7-dihydro-5H-cyclopenta[d]pyrimidin-4-amine]: the inhibition at 1 µM is 50 to 75%.
As for `COc1ccc(OC)c(-c2nc3c(c(NCc4ccc(-c5nc(C(F)(F)F)cn5C)cc4)n2)CCC3)c1` [Example 66, 2-(2,5-dimethoxyphenyl)-N-(4-(1-methyl-4-(trifluoromethyl)-1H-imidazol-2-yl)benzyl)-6,7-dihydro-5H-cyclopenta[d]pyrimidin-4-amine], the inhibition at 1 µM lay within 50 to 75%.
In the case of `Cn1cc(C(F)(F)F)nc1-c1ccc(CNc2nc(-c3cccc(Cl)c3F)nc3c2CCC3)cc1` [Example 67, 2-(3-chloro-2-fluorophenyl)-N-(4-(1-methyl-4-(trifluoromethyl)-1H-imidazol-2-yl)benzyl)-6,7-dihydro-5H-cyclopenta[d]pyrimidin-4-amine], the inhibition at 1 µM fell in the range of 50 to 75%.
On to `COc1ccc(-c2nc3c(c(NCc4ccc(-c5nc(C(F)(F)F)cn5C)cc4)n2)CCC3)c(OC)c1` [Example 68, 2-(2,4-dimethoxyphenyl)-N-(4-(1-methyl-4-(trifluoromethyl)-1H-imidazol-2-yl)benzyl)-6,7-dihydro-5H-cyclopenta[d]pyrimidin-4-amine], for which the inhibition at 1 µM is 50 to 75%.
For the molecule `COc1ccc(-c2nc3c(c(NCc4ccc(-c5nc(C(F)(F)F)cn5C)cc4)n2)CCC3)cc1OC` [Example 69, 2-(3,4-dimethoxyphenyl)-N-(4-(1-methyl-4-(trifluoromethyl)-1H-imidazol-2-yl)benzyl)-6,7-dihydro-5H-cyclopenta[d]pyrimidin-4-amine], the inhibition at 1 µM lay within 50 to 75%.
Consider `Cn1cc(C(F)(F)F)nc1-c1ccc(CNc2nc(-c3ccccc3C(F)(F)F)nc3c2CCC3)cc1` [Example 70, N-(4-(1-methyl-4-(trifluoromethyl)-1H-imidazol-2-yl)benzyl)-2-(2-(trifluoromethyl)phenyl)-6,7-dihydro-5H-cyclopenta[d]pyrimidin-4-amine], for which the inhibition at 1 µM is greater than 75%.
For `Cn1cc(C(F)(F)F)nc1-c1ccc(CNc2nc(-c3ccc(C(F)(F)F)cc3)nc3c2CCC3)cc1` [Example 71, N-(4-(1-methyl-4-(trifluoromethyl)-1H-imidazol-2-yl)benzyl)-2-(4-(trifluoromethyl)phenyl)-6,7-dihydro-5H-cyclopenta[d]pyrimidin-4-amine], the inhibition at 1 µM fell in the range of 50 to 75%.
